From patent US20090105118A1, “Preparation and applications of novel complexes made by gamma-polyglutamic acid and cisplatin” (priority 2007, published 2009)

Columns and labels:
Lung cancer cells = conditions: mice; PG-TXL injected at 120 mg/kg; paclitaxel used alone; cited from earlier work
[1] = In vivo toxicity study in healthy mice (survival, body weight); conditions: Kun Ming mice, 5 mg/kg tail vein at 0, 5 and 10 days
Experimental: 20 healthy Kun Ming mice were randomly divided (10 each for male and female) into two groups. Cisplatin and γ-PGA-CDDP was individually injected in each group in a tail vein. The injections were done at 0, 5, and 10 days at 5 mg/kg. The survival and body weight of the mice were recorded. The results are shown in FIG. 10 and FIG. 11 which are comparisons of the toxicity of γ-PGA-CDDP and CDDP based on the survival of China KM mice and based on the body weight of China KM mice.

[2] = tested on: Human breast cancer cells Bcap-37; assay: Bcap-37 xenograft model, survival and body weight; type: in vivo, BALB/C female SKID mouse; conditions: Bcap-37 xenograft mice, equivalent of 4 mg/kg cisplatin, tail vein at 0 and 5 days
Experimental: Human breast cancer cells Bcap-37 in DMEM with 10% […] were cultured at 37° C. and 5% CO2. 5×10^6 Bcap cells were injected in each of BALB/C female SKID mouse (18 mice, 4 week old, 20 g each). After 7 days the mice were randomly divided into 3 groups, 6 mice per group. The first group was treated with saline, the second group was treated with cisplatin, and the third group was treated with γ-PGA-CDDP. γ-PGA-CDDP complex (at equivalent of 4 mg/kg cisplatin) was injected in a tail vein at 0 and 5 days. The survival and body weight was recorded. The results are shown in FIG. 12 and FIG. 13 which are comparisons of the toxicity of γ-PGA-CDDP and CDDP based on the survival and body weight of BALB/C female mice.

Molecule	reduction of lung cancer cells (Lung cancer cells)	body weight change (in vivo toxicity) [1]	mice died ([1]; after 15 days)	body weight change (toxicity) [2]
CC(=O)O[C@H]1C(=O)[C@@]2(C)[C@H]([C@H](OC(=O)c3ccccc3)[C@]3(O)C[C@H](OC(=O)[C@H](O)[C@@H](NC(=O)c4ccccc4)c4ccccc4)C(C)=C1C3(C)C)[C@]1(OC(C)=O)CO[C@@H]1C[C@@H]2O [paclitaxel]	58%	–	–	–
cis-daimminedichloroplatinum(II) [cisplatin]	–	reduced	90%	obvious decrease of body weight
